The assay addresses T1, recombinant human glucagon receptor (Homo sapiens, UniProt P47871).
T1 construct: expressed in transfected cells; host or cells: CHO (Chinese hamster ovary) cells
Description: Inhibition of glucagon-stimulated intracellular cAMP assay. The class given is cell-based. Particulars: CHO cells expressing recombinant human glucagon receptor, stimulated with 300 pM glucagon, LANCE cAMP. The method, then: Inhibition of Glucagon-Stimulated Intracellular cAMP Assay
Chinese hamster ovary (CHO) cells expressing the recombinant human glucagon receptor were harvested with the aid of non-enzymatic cell dissociation solution (GIBCO 13151-014). The cells were then pelleted and suspended in the stimulation buffer (1×HBSS, 5 mM Hepes, 0.1% BSA, pH7.4 in presence of complete protease inhibitor and phosphodiesterase inhibitor). The adenylate cyclase assay was conducted following the LANCE cAMP Kit (Perkin Elmer, AD0262) instructions. Briefly, cells were preincubated with anti-cAMP antibody in the stimulation buffer with a final concentration of 3% DMSO for 30 minutes and then stimulated with 300 pM glucagon for 45 minutes. The reaction was stopped by incubating with the detection buffer containing Europium chelate of the Eu-SA/Biotin-cAMP tracer for 20 hours. The fluorescence intensity emitted from the assay was measured at 665 nm using PheraStar instruments. […] Standard cAMP concentrations were conducted concurrently for conversion of fluorescence signal to cAMP level. Data was analyzed using GraphPad Prism. IC50 values were calculated using non-linear regression analysis assuming single site competition. […] Some of the compounds of the invention shown in the examples measured less than about 5 μM in this assay; other examples measured less than about 500 nM; others less than about 100 nM. […]

Molecules are shown by their SMILES.

In patent publication US8361959B2, “Spiro-imidazolone derivatives as glucagon receptor antagonists” (Merck Sharp & Dohme Corp., priority 2008, dated 2013) one finds IC50 data, which are given here for two compounds.

The IC50 is the midpoint of a concentration-inhibition curve.

T1 sequence (P47871 26-477): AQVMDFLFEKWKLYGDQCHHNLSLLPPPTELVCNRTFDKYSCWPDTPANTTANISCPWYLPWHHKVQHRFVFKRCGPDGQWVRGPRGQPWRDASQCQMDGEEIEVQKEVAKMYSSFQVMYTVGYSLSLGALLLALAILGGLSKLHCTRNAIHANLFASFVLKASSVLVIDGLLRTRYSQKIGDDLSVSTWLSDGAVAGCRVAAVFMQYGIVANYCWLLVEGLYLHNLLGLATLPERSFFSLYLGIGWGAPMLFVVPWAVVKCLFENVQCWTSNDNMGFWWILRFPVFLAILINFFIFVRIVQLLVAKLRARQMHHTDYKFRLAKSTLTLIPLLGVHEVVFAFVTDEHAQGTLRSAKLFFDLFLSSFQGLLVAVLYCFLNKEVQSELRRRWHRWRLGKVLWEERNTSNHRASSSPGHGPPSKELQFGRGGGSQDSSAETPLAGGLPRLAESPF

Take `CCC[C@H](c1ccc(C(=O)NCc2nn[nH]n2)cc1)N1C(=O)C(c2cccc(Cl)c2)=NC12CCC(C(C)(C)C)CC2` (some centres unmarked) [Example 1.156]: the IC50 was found to be 452 nM. Regarding `CC(C)(C)C1CCC2(CC1)N=C(c1ccc(F)cc1)C(=O)N2[C@@H](c1ccc(C(=O)NCCC(=O)O)cc1)C1CC1` (some centres unmarked) [Example 1.212], the IC50 was 57 nM.
